Reference: US8722096B2, “Lipoic acid pellets” (Aptalis Pharma Limited, priority 2006, dated 2014)

Assays:
[1] = Stability of lipoic acid in ethanol/phosphate buffer solutions; format: physicochemical; conditions: ethanol/phosphate buffer 50 mM pH 6.8, 80:20 to 90:10; room temperature, protected from light
Description: In case the application in the solvent form is chosen, for example ethanol, acetone or other solvents or their mixtures thereof can be used. Also other mixtures of organic solvents with buffer solutions can be used, for example mixtures of ethanol and phosphate buffers. These mixtures can be composed by ethanol/phosphate buffer 50 mM pH:6.8 in proportions ranging from 80:20 to 90:10. In these solutions, lipoic acid is stable for at least 24 hours if stored at room temperature and protected from light. Lipoic acid is dissolved in these solvents at an optimal concentration ranging from 20 to 30% w/w, depending on the type of solvent or solvent mixture used. Application of the lipoic acid solution on the core is performed by wetting and subsequent evaporation of the solvent in presence of air at a temperature lower than 40° C., preferably ranging between 36 and 38° C. This procedure yields active cores with a low content of residual solvents.

[2] = gives polymerization products; cited from earlier work

Structure (SMILES): O=C(O)CCCCC1CCSS1 (centres unmarked) [lipoic acid, 1,2-dithiolan-3-pentanoic acid]
- time for which lipoic acid is stable in solution [1]: at least 24 hours
- stability under environmental conditions [2]: unstable under various environmental conditions
